Data as given in patent US6737407B1, “Treatment of obesity” (Metabolic Pharmaceuticals, Ltd., priority 1997, dated 2004).
Bridges are numbered along the chain shown (N, C = ends). Where no end group is shown, it is not given here. [ ]: non-standard residue; d: D form. The star is where a group is joined. Pen = CC(C)(S)[C@H](N)C(=O)O; Acm = CC(=O)NC*

System: adipose tissues from male Zucker fatty (fa/fa) rats
Experiment: In vitro inhibition of lipogenesis in isolated adipose tissue
Assay type: cell-based, rat
Details: for In vitro lipogenesis % of control / In vitro lipogenesis Activity / In vitro lipogenesis, rate of [C14]-glucose incorporation into [C14]-lipid: peptide 0.3 μM, insulin 0.1 mU/ml; for In vitro lipogenesis, rate of [C14]-glucose incorporation into [C14]-lipid: KRB buffer; for activity according to the in vivo and in vitro assay results (in words): structure-activity summary
Protocol: The rate of the incorporation of exogenous [C^14]-glucose into total lipid in adipose tissue was measured as the index of anti-lipogenic activity of hGH 177-191.
Adipose tissues were sliced into segments of approximately 200 mg each and then placed in Krebs-Ringer bicarbonate (KRB) buffer (pH 7.4) containing 2% defatted BSA, and glucose (0.1 mg/ml) and gassed with 95% O2-5% CO2 at 37° C. After 1 hr preincubation, the tissues were transferred to another 2 ml of fresh media containing [C^14]-glucose (final specific activity 0.05 μCi/μmol), and 0.3 μM of hGH 177-191 in the presence or absence of insulin (0.1 mU/ml) for a further 90 min incubation (conditions as above). Then the tissues were removed, washed thoroughly with KRB buffer and lipid was extracted with 5 ml of chlorofom/methanol (2:1, v/v) The extraction solution was washed with 2 ml of MeOH-H2O solution containing 0.1% MgCl2. A 2.5 ml aliquot of the washed extraction solution was taken and transferred to scintillation vials. The [C^14] radioactivity was measured with a liquid scintillation counter. The rates of total lipid synthesis were expressed as μmol [C^14]-glucose incorporated into lipid/g tissue/hr.

Substance	In vitro lipogenesis % of control	In vitro lipogenesis Activity	In vitro lipogenesis, rate of [C14]-glucose incorporation into [C14]-lipid [nmol/g tissue/hr]	activity according to the in vivo and in vitro assay results (in words)
9401 (LRIVQCRSVEGSCGF; listed as Homo sapiens) [Compound 9401]	75 % of control	Active	161 ± 10	–
9402 (LRIVQC(Acm)RSVEGSCGF; not fully specified (residue 13); listed as Homo sapiens) [Compound 9402]	91 % of control	Inactive	222 ± 9	–
9402 (LRIVQC(Acm)RSVEGSCGF; not fully specified (residue 13); listed as Homo sapiens) [compound 9402]	–	–	–	inactive
9403 (LRKVQCRSVEGSCGF; disulfide 6-13; listed as Homo sapiens) [Compound 9403]	69 % of control	Active	167 ± 28	–
9404 (LRIVQCRSVEGSCGF-NH2; disulfide 6-13; N-terminus assumed; SMILES CC[C@H](C)[C@H](NC(=O)[C@H](CCCNC(=N)N)NC(=O)[C@@H](N)CC(C)C)C(=O)N[C@H](C(=O)N[C@@H](CCC(N)=O)C(=O)N[C@H]1CSSC[C@@H](C(=O)NCC(=O)N[C@@H](Cc2ccccc2)C(N)=O)NC(=O)[C@H](CO)NC(=O)CNC(=O)[C@H](CCC(=O)O)NC(=O)[C@H](C(C)C)NC(=O)[C@H](CO)NC(=O)[C@H](CCCNC(=N)N)NC1=O)C(C)C; listed as Homo sapiens) [Compound 9404]	77 % of control	Active	187 ± 18	–
9405 (Ac-LRIVQCRSVEGSCGF; disulfide 6-13; listed as Homo sapiens) [Compound 9405]	68 % of control	Active	164 ± 17	–
9406 (LRIVQCASVEGSCGF; listed as Homo sapiens) [Compound 9406]	97 % of control	Inactive	236 ± 17	–
9407 (LRIVQCKSVEGSCGF; disulfide 6-13; listed as Homo sapiens) [Compound 9407]	71 % of control	Active	174 ± 16	–
9408 (LRIVQCKSVEGSCGF; lactam 7-10; disulfide 6-13; listed as Homo sapiens) [compound 9408]	–	–	–	retains activity
9410 (H-LRIVQCRSVEGSCGF; disulfide 6-13; also: desamino N-terminus; listed as Homo sapiens) [Compound 9410]	59 % of control	Active	143 ± 20	–
9501 (LRIVQCRSVE[dA]SC[dA]F; disulfide 6-13; listed as Homo sapiens) [Compound 9501]	76 % of control	Active	185 ± 6	–
9501 (LRIVQCRSVE[dA]SC[dA]F; disulfide 6-13; listed as Homo sapiens) [compound 9501]	–	–	–	activity being retained
9502 (LRIVQ[Pen]RSVEGS[Pen]GF; disulfide 6-13; listed as Homo sapiens) [Compound 9502]	72 % of control	Active	174 ± 5	–
9601 (LRIVQCRSVEGSCGA; disulfide 6-13; listed as Homo sapiens) [Compound 9601]	76 % of control	Active	185 ± 24	–
9602 (LRIVQCRSVEGSCAF; disulfide 6-13; listed as Homo sapiens) [Compound 9602]	73 % of control	Active	176 ± 27	–
9603 (LAIVQCRSVEGSCGF; listed as Homo sapiens) [Compound 9603]	93 % of control	Inactive	225 ± 18	–
9604 (YLRIVQCRSVEGSCGF; disulfide 7-14; listed as Homo sapiens) [Compound 9604]	49 % of control	Active	118 ± 16	–
9605 (KLRIVQCRSVEGSCGF; disulfide 7-14; listed as Homo sapiens) [Compound 9605]	76 % of control	Active	184 ± 41	–
9606 (LKIVQCRSVEGSCGF; disulfide 6-13; listed as Homo sapiens) [Compound 9606]	77 % of control	Active	187 ± 19	–
9606 (LKIVQCRSVEGSCGF; disulfide 6-13; listed as Homo sapiens) [compound 9606]	–	–	–	retains activity
9607 (ARIVQCRSVEGSCGF; disulfide 6-13; listed as Homo sapiens) [Compound 9607]	82 % of control	Active	198 ± 12	–
9608 (LRAVQCRSVEGSCGF; disulfide 6-13; listed as Homo sapiens) [Compound 9608]	71 % of control	Active	173 ± 12	–
9609 (LRIAQCRSVEGSCGF; disulfide 6-13; listed as Homo sapiens) [Compound 9609]	78 % of control	Active	188 ± 13	–
9610 (LRIVACRSVEGSCGF; disulfide 6-13; listed as Homo sapiens) [Compound 9610]	79 % of control	Active	192 ± 14	–
9611 (LRIVQARSVEGSCGF; listed as Homo sapiens) [Compound 9611]	93 % of control	Inactive	224 ± 19	–
9611 (LRIVQARSVEGSCGF; listed as Homo sapiens) [compound 9611]	–	–	–	inactive
9612 (LRIVQCRAVEGSCGF; disulfide 6-13; listed as Homo sapiens) [Compound 9612]	79 % of control	Active	191 ± 20	–
9613 (LRIVQCRSAEGSCGF; disulfide 6-13; listed as Homo sapiens) [Compound 9613]	78 % of control	Active	189 ± 16	–
9614 (LRIVQCRSVAGSCGF; listed as Homo sapiens) [Compound 9614]	96 % of control	Inactive	233 ± 13	–
